Consider eight compounds from patent US12281122B1, “PI3K inhibitors” (Cogent Biosciences, Inc., priority 2023, dated 2025).

Where only a bound is given, the exact number is not on record here.

The test system of assay [1] is T47D (PI3Kα-H1047R) cell line. The assay can be described thus: HTRF phospho-AKT(S473) cell assay in T47D cells. The class given is cell-based, human. To be noted: Homo sapiens, 2 hours compound incubation. In outline:
(§1)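 pAKT(S473) in lysates read by HTRF after a 2 h, 37 °C compound exposure (12-point 1:3 series, max 0.5% DMSO). SKBR3 (wild type, top 10 μM) received 70 ng/ml PDGF-BB during the final 15 min; T47D (H1047R, top 5 μM) was unstimulated. IC50 values derived from the dose-response.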
Background: TR-FRET usually uses a lanthanide donor and a delayed reading to cut background.

For assay [2], the system named is SKBR3 (PI3Kα-Wild Type) cell line. The assay can be described thus: HTRF phospho-AKT(S473) cell assay in SKBR3 cells. The format is cell-based, human. To be noted: Homo sapiens, SK-BR-3, 2 hours compound incubation, PDGF-BB stimulated. A digest of the protocol: as §1
Setting [3] is: T47D (PI3Kα-H1047R) cells, HTRF phospho-AKT(S473).
Setting [4] is: SKBR3 (PI3Kα-Wild Type) cells, HTRF phospho-AKT(S473).
[5] abbreviates: HTRF phospho-AKT(S473), T47D (PI3Kα-H1047R) cells.
The mark [6] stands for this setting: HTRF phospho-AKT(S473), SKBR3 (PI3Kα-Wild Type) cells.

One may read the IC50 as the point on the concentration scale where inhibition reaches its midpoint. A higher IC50 goes with a need for much substance. As for `Cc1cc([C@@H](C)Nc2ccc(Cl)nc2C(=O)NS(C)(=O)=O)c2nc(N3CCO[C@@H](c4cnn(C)c4)C3)n(C)c(=O)c2c1` (relative stereo) [Compound 314, 6-chloro-3-(((R)-1-(3,6-dimethyl-2-((R*)-2-(1-methyl-1H-pyrazol-4-yl)morpholino)-4-oxo-3,4-dihydroquinazolin-8-yl)ethyl)amino)-N-(methylsulfonyl) picolinamide], the IC50 in assay [1] (setting [3]) was less than 0.25 µM; in assay [2] (setting [4]), no less than 5 µM.

Regarding `Cc1cc([C@@H](C)Nc2ccc(Cl)nc2C(=O)NS(C)(=O)=O)c2nc(N3[C@@H]4CC[C@H]3C[C@H](c3cnn(C)c3)C4)n(C)c(=O)c2c1` [Compound 298, 6-chloro-3-(((R)-1-(3,6-dimethyl-2-((1R,3S,5S)-3-(1-methyl-1H-pyrazol-4-yl)-8-azabicyclo[3.2.1]octan-8-yl)-4-oxo-3,4-dihydroquinazolin-8-yl)ethyl)amino)-N-(methylsulfonyl) picolinamide], the IC50 is less than 0.25 µM in assay [1] (setting [3]) and no less than 5 µM in assay [2] (setting [4]).

In the case of `Cc1cc([C@@H](C)Nc2ccc(Cl)nc2C(=O)NS(C)(=O)=O)c2nc(N3CCC[C@H](c4ccc(C)nc4)C3)n(C)c(=O)c2c1` (relative stereo) [Compound 237, 6-chloro-3-(((R)-1-(3,6-dimethyl-2-((R*)-3-(6-methylpyridin-3-yl)piperidin-1-yl)-4-oxo-3,4-dihydroquinazolin-8-yl)ethyl)amino)-N-(methylsulfonyl) picolinamide], the IC50 was less than 0.25 µM in assay [1] (setting [3]) and 1 to 5 µM in assay [2] (setting [4]).

With `Cc1cc([C@@H](C)Nc2ccc(Cl)nc2C(=O)NS(C)(=O)=O)c2nc(-c3ccc(-c4cnc(C)nc4)nc3)n(C)c(=O)c2c1` [Compound 854, (R)-6-chloro-3-((1-(3,6-dimethyl-2-(6-(2-methylpyrimidin-5-yl)pyridin-3-yl)-4-oxo-3,4-dihydroquinazolin-8-yl)ethyl)amino)-N-(methylsulfonyl) picolinamide], the IC50 in assay [1] (T47D (PI3Kα-H1047R) cell line, phospho-AKT(S473) HTRF) is less than 0.25 µM; in assay [2] (SKBR3 (PI3Kα-Wild Type) cell line, phospho-AKT(S473) HTRF) it was 1 to 5 µM.

`Cc1cc([C@@H](C)Nc2ccc(Cl)nc2C(=O)NS(C)(=O)=O)c2nc(-c3ccc4cn(C)nc4c3)n(C)c(=O)c2c1` [Compound 835, (R)-6-chloro-3-((1-(3,6-dimethyl-2-(2-methyl-2H-indazol-6-yl)-4-oxo-3,4-dihydroquinazolin-8-yl)ethyl)amino)-N-(methylsulfonyl) picolinamide]: the IC50 in assay [1] (setting [5]) was 0.25 to 0.5 µM; in assay [2] (setting [6]), 1 to 5 µM.

`Cc1cc([C@@H](C)Nc2ccc(Cl)nc2C(=O)NS(C)(=O)=O)c2nc(-c3ccc4c(c3)C(=O)N(C)CC4)n(C)c(=O)c2c1` [Compound 779, (R)-6-chloro-3-((1-(3,6-dimethyl-2-(2-methyl-1-oxo-1,2,3,4-tetrahydroisoquinolin-7-yl)-4-oxo-3,4-dihydroquinazolin-8-yl)ethyl)amino)-N-(methylsulfonyl) picolinamide]: the IC50 in assay [1] (setting [5]) was less than 0.25 µM; in assay [2] (setting [6]), 1 to 5 µM.

With `Cc1cc([C@@H](C)Nc2ccc(Cl)nc2C(=O)NS(C)(=O)=O)c2nc(N3C[C@@H]4C[C@H]3CN4c3cnc(C)nc3)n(C)c(=O)c2c1` [Compound 576, 6-chloro-3-(((R)-1-(3,6-dimethyl-2-((1S,4S)-5-(2-methylpyrimidin-5-yl)-2,5-diazabicyclo[2.2.1]heptan-2-yl)-4-oxo-3,4-dihydroquinazolin-8-yl)ethyl)amino)-N-(methylsulfonyl) picolinamide], the values for the IC50 in assay [1] (setting [5]) and in assay [2] (setting [6]) were 0.5 to 1 µM and no less than 5 µM, respectively.

`Cc1cc([C@@H](C)Nc2ccc(Cl)nc2C(=O)NS(C)(=O)=O)c2nc(N3[C@@H]4CC[C@H]3C[C@H](n3ncc5ccccc53)C4)n(C)c(=O)c2c1` [Compound 695, 3-(((R)-1-(2-((1R,3S,5S)-3-(1H-indazol-1-yl)-8-azabicyclo[3.2.1]octan-8-yl)-3,6-dimethyl-4-oxo-3,4-dihydroquinazolin-8-yl)ethyl)amino)-6-chloro-N-(methylsulfonyl) picolinamide]: the figures for the IC50 in assay [1] (setting [5]) and in assay [2] (setting [6]) were 0.25 to 0.5 µM and no less than 5 µM, respectively.
